Results taken from patent US20250262201A1, “COMPOUNDS AND METHODS USEFUL FOR STABILIZING PHENYLALANINE HYDROXYLASE MUTATIONS” (Agios Pharmaceuticals, Inc., priority 2022, published 2025).

The compounds below were run against T1, human PAH with the R408W mutation (Homo sapiens, UniProt P00439, R408W) (assay: Cell Based Phenylalanine Flux Assay). Conditions: A375 R408W cells, 24 hrs with compound, then 20 μM sepiapterin and 800 μM 13C9,15N-Phenylalanine for 4 hours; 13C-Tyrosine by LC-MS; average where tested multiple times.
T1 construct: expressed in transfected cells
T1 sequence (P00439 1-452 R408W): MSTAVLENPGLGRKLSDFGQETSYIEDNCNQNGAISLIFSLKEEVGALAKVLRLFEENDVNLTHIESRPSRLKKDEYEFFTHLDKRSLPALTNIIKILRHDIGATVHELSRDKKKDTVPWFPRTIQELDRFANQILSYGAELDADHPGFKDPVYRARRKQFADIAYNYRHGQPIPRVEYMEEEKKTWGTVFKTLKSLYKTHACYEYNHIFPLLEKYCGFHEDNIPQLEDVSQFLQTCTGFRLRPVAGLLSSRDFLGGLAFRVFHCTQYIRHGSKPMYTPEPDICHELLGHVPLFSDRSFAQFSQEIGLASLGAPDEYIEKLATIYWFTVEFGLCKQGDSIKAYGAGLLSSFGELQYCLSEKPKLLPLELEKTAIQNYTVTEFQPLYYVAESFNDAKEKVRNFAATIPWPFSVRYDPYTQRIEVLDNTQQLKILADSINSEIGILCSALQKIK
Set-up: scale not given here

Row | AC50 | Compound
1 | E, E | O=C(c1oc(-c2cccnc2)nc1C(F)F)N1CCc2[nH]cnc2C1c1ncc2ccccc2n1 (stereo not shown)
2 | E, E | O=C(c1oc(N2CCOCC2)nc1C(F)F)N1CCc2[nH]cnc2C1c1ncc2ccccc2n1 (stereo not shown)

Same assay, conditions: A375 R408W cells, 24 hrs with compound, then 20 μM sepiapterin and 800 μM 13C9,15N-Phenylalanine for 4 hours; 13C-Tyrosine by LC-MS; average where tested multiple times; read-out: AC50

Row | AC50 [nM] | Compound
3 | > 5000 | Cc1nnc(CCC(=O)N2CCc3[nH]cnc3C2c2cn3ccccc3n2)s1 (stereo not shown)
4 | 1000 to 5000 | Cn1nc(C(F)F)nc1C(=O)N1CCc2[nH]cnc2C1c1cc2ccccc2nn1 (stereo not shown)
5 | > 5000 | CC(C)(O)c1ncc(C(=O)N2CCc3[nH]cnc3C2c2ncc3ccccc3n2)o1 (stereo not shown)
6 | > 5000 | O=C(CCc1nnc(C(F)F)o1)N1CCc2[nH]cnc2C1c1cn2ccccc2n1 (stereo not shown)
7 | 1000 to 5000 | COCc1ncc(C(=O)N2CCc3[nH]cnc3[C@@H]2c2ccc3ccccc3n2)s1 (single isomer, unassigned)
8 | 1000 to 5000 | COCc1ccc2c(C(=O)N3CC(C)c4[nH]cnc4C3c3cc4ccccc4cn3)cnn2c1 [(4S, 7S) diastereomer of 3-[5-[6-(methoxymethyl)pyrazolo[1,5]
9 | 1000 to 5000 | Cc1nc(N2CCN(C)CC2)oc1C(=O)N1CCc2[nH]cnc2C1c1ccc2ccccc2n1 (stereo not shown)
10 | > 5000 | Cc1nc(NC2CC2)oc1C(=O)N1CCc2[nH]cnc2C1c1ccc2ccccc2n1 (stereo not shown)
11 | 1000 to 5000 | Cc1nc(CCN(C)C)oc1C(=O)N1CCc2[nH]cnc2C1c1ccc2ccccc2n1 (stereo not shown)

Row | Compound | AC50 [nM]
12 | COCc1ncc(C(=O)N2CCc3[nH]cnc3[C@H]2c2cn3ccccc3n2)s1 (single isomer, unassigned) | > 5000

Same assay, conditions: A375 cells expressing human R408W PAH; 24 hrs compound incubation; 13C-Tyrosine by LC-MS; average where tested multiple times; read-out: AC50

Row | AC50 [nM] | Compound
13 | < 500 | CN1CCN(Cc2ccc3c(C(=O)N4CCc5[nH]cnc5[C@H]4c4cc5ccccc5cn4)cnn3c2)CC1 [Example 488, (R)-(4-(isoquinolin-3-yl)-6,7-dihydro-1H-imidazo[4,5-c]pyridin-5(4H)-yl)(6-((4-methylpiperazin-1-yl)methyl)pyrazolo[1,5-a]pyridin-3-yl)methanone]
14 | < 500 | O=C(c1oc(C2CC(F)(F)C2)nc1C(F)F)N1CCc2[nH]cnc2C1c1ccc2ccccc2n1 (stereo in doubt) [Example 71, (R)-(2-(3,3-difluorocyclobutyl)-4-(difluoromethyl)oxazol-5-yl)(4-(quinolin-2-yl)-6,7-dihydro-1H-imidazo[4,5-c]pyridin-5(4H)-yl)methanone]
15 | 500 to 1000 | C[C@@H]1CN(C(=O)c2nnc(-c3ccccn3)o2)[C@H](c2cc3ccccc3cn2)c2nc[nH]c21 (single isomer, unassigned) [Example 388]
16 | < 500 | O=C(c1cnco1)N1CCc2[nH]cnc2[C@H]1c1ncc2ccccc2n1 [Example 149, (S)-oxazol-5-yl(4-(quinazolin-2-yl)-6,7-dihydro-1H-imidazo[4,5-c]pyridin-5(4H)-yl)methanone]
17 | > 5000 | O=C(c1nnc(-c2cc[nH]n2)o1)N1CCc2[nH]cnc2[C@@H]1c1ncc2ccccc2n1 [Example 176, (R)-(5-(1H-pyrazol-3-yl)-1,3,4-oxadiazol-2-yl)(4-(quinazolin-2-yl)-6,7-dihydro-1H-imidazo[4,5-c]pyridin-5(4H)-yl)methanone]
18 | < 500 | O=C(c1nnc(-c2ccccn2)o1)N1CCc2[nH]cnc2C1c1ccc2ccccc2n1 (stereo in doubt) [Example 45, (R)-(5-(pyridin-2-yl)-1,3,4-oxadiazol-2-yl)(4-(quinolin-2-yl)-6,7-dihydro-1H-imidazo[4,5-c]pyridin-5(4H)-yl)methanone]
19 | > 5000 | O=C(c1nnc(-c2cnn(C(F)F)c2)o1)N1CCc2[nH]cnc2C1c1ccc2ccccc2n1 (stereo in doubt) [Example 64, (S)-(5-(1-(difluoromethyl)-1H-pyrazol-4-yl)-1,3,4-oxadiazol-2-yl)(4-(quinolin-2-yl)-6,7-dihydro-1H-imidazo[4,5-c]pyridin-5(4H)-yl)methanone]
20 | < 500 | O=C(c1ocnc1-c1ccccc1)N1CCc2[nH]cnc2[C@H]1c1cc2ccccc2cn1 [Example 348, (R)-(4-(isoquinolin-3-yl)-6,7-dihydro-1H-imidazo[4,5-c]pyridin-5(4H)-yl)(4-phenyloxazol-5-yl)methanone]
21 | < 500 | O=C(CC1CC(F)C1)N1CCc2[nH]cnc2[C@H]1c1cn2ccccc2n1 (stereo partly drawn) [Example 254, (R)-2-(3-fluorocyclobutyl)-1-(4-(imidazo[1,2-a]pyridin-2-yl)-6,7-dihydro-1H-imidazo[4,5-c]pyridin-5(4H)-yl)ethanone]
22 | 500 to 1000 | O=C(c1ocnc1C1CC1)N1CCc2[nH]cnc2[C@H]1c1cn2ccccc2n1 [Example 244, (R)-(4-cyclopropyloxazol-5-yl)(4-(imidazo[1,2-a]pyridin-2-yl)-6,7-dihydro-1H-imidazo[4,5-c]pyridin-5(4H)-yl)methanone]
23 | < 500 | FC(F)(F)c1cnc(N2CCc3[nH]cnc3C2c2ccc3ccccc3n2)nc1 (stereo in doubt) [Example 29, (R)-2-(5-(5-(trifluoromethyl)pyrimidin-2-yl)-4,5,6,7-tetrahydro-1H-imidazo[4,5-c]pyridin-4-yl)quinoline]
24 | 1000 to 5000 | O=C(c1nnc(-c2ccn(C(F)F)n2)o1)N1CCc2[nH]cnc2[C@@H]1c1ncc2ccccc2n1 [Example 190, (R)-(5-(1-(difluoromethyl)-1H-pyrazol-3-yl)-1,3,4-oxadiazol-2-yl)(4-(quinazolin-2-yl)-6,7-dihydro-1H-imidazo[4,5-c]pyridin-5(4H)-yl)methanone]
25 | 1000 to 5000 | O=C(c1nnc(C2CC2)o1)N1CCc2[nH]cnc2C1c1ccc2ccccc2n1 (stereo in doubt) [Example 10, (S)-(5-cyclopropyl-1,3,4-oxadiazol-2-yl)(4-(quinolin-2-yl)-6,7-dihydro-1H-imidazo[4,5-c]pyridin-5(4H)-yl)methanone]
26 | < 500 | COc1ccc(-c2nnc(C(=O)N3CCc4[nH]cnc4[C@H]3c3cc4ccccc4cn3)o2)nc1 [Example 438, (R)-(4-(isoquinolin-3-yl)-6,7-dihydro-1H-imidazo[4,5-c]pyridin-5(4H)-yl)(5-(5-methoxypyridin-2-yl)-1,3,4-oxadiazol-2-yl)methanone]
27 | < 500 | O=C(c1cnn2c(Br)cccc12)N1CCc2[nH]cnc2[C@H]1c1cc2ccccc2cn1 [Example 355, (R)-(7-bromopyrazolo[1,5-a]pyridin-3-yl)(4-(isoquinolin-3-yl)-6,7-dihydro-1H-imidazo[4,5-c]pyridin-5(4H)-yl)methanone]
28 | < 500 | O=C(c1nnc(-c2ncccc2F)o1)N1CCc2[nH]cnc2[C@H]1c1ncc2ccccc2n1 [Example 163, (S)-(5-(3-fluoropyridin-2-yl)-1,3,4-oxadiazol-2-yl)(4-(quinazolin-2-yl)-6,7-dihydro-1H-imidazo[4,5-c]pyridin-5(4H)-yl)methanone]
29 | 1000 to 5000 | C[C@H]1CN(C(=O)c2nnc(C(C)(C)C)o2)[C@@H](c2cc3ccccc3cn2)c2nc[nH]c21 [Example 427, (5-(tert-butyl)-1,3,4-oxadiazol-2-yl)((4S,7S)-4-(isoquinolin-3-yl)-7-methyl-6,7-dihydro-1H-imidazo[4,5-c]pyridin-5(4H)-yl)methanone]
30 | < 500 | O=C(CC1CC1)N1CCc2[nH]cnc2[C@H]1c1cn2ccccc2n1 [Example 238, (R)-2-cyclopropyl-1-(4-(imidazo[1,2-a]pyridin-2-yl)-6,7-dihydro-1H-imidazo[4,5-c]pyridin-5(4H)-yl)ethanone]
31 | 500 to 1000 | O=C(CCc1nccs1)N1CCc2[nH]cnc2[C@H]1c1ccc2ccccc2c1 [Example 219, (R)-1-(4-(naphthalen-2-yl)-6,7-dihydro-1H-imidazo[4,5-c]pyridin-5(4H)-yl)-3-(thiazol-2-yl)propan-1-one]
